Columns and labels:
Format in all cases: in vivo
[1] = test system: Euschistus heros (Neotropical Brown Stink Bug); experiment: Euschistus heros (neotropical brown stink bug) feeding/contact activity; details: 120 h, application rate 200 ppm, sprayed soybean leaves, N2 nymphs, 5 days after infestation, read-out: effect in at least one of the two categories (mortality or growth inhibition)
Procedure: Example B2: Euschistus heros (Neotropical Brown Stink Bug) Feeding/Contact Activity
Soybean leaves on agar in 24-well microtiter plates were sprayed with aqueous test solutions prepared from 10,000 ppm DMSO stock solutions. After drying the leaves were infested with N2 nymphs. The samples were assessed for mortality and growth inhibition in comparison to untreated samples 5 days after infestation.

[2] = test system: Myzus persicae (Green Peach Aphid); experiment: Myzus persicae (green peach aphid) feeding/contact activity, eggplant leaf discs; details: foliar, 144 h, application rate 200 ppm, sprayed eggplant leaf discs, aphid population of mixed ages, 6 days after infestation, read-out: growth inhibition
Procedure: (§1) Example B6: Myzus persicae (Green Peach Aphid) Feeding/Contact Activity Eggplant leaf discs were placed onto agar in a 24-well microtiter plate and sprayed with aqueous test solutions prepared from 10,000 ppm DMSO stock solutions. After drying, the leaf discs were infested with an aphid population of mixed ages. The samples were assessed for mortality 6 days after infestation.

[3] = test system: Myzus persicae (Green Peach Aphid); experiment: Myzus persicae (green peach aphid) intrinsic activity; details: 120 h, test rate 12 ppm, mixed with sucrose solution, Parafilm, infested pea seedlings, 5 days after infestation
From the text: Example B5: Myzus persicae (Green Peach Aphid). Intrinsic Activity
Test compounds prepared from 10,000 ppm DMSO stock solutions were applied by pipette into 24-well microtiter plates and mixed with sucrose solution. The plates were closed with a stretched Parafilm. A plastic stencil with 24 holes was placed onto the plate and infested pea seedlings were placed directly on the Parafilm. The infested plate was closed with a gel blotting paper and another plastic stencil and then turned upside down. The samples were assessed for mortality 5 days after infestation.

[4] = test system: Plutella xylostella (Diamond Back Moth); experiment: Plutella xylostella (diamond back moth) feeding/contact activity; details: 192 h, application rate 200 ppm, artificial diet, Plutella eggs, 8 days after infestation, read-out: effect in at least one of the two categories (mortality or growth inhibition)
Procedure: Example B7: Plutella xylostella (Diamond Back Moth) Feeding/Contact Activity
24-well microtiter plates with artificial diet were treated with aqueous test solutions prepared from 10,000 ppm DMSO stock solutions by pipetting. After drying, Plutella eggs were pipetted through a plastic stencil onto a gel blotting paper and the plate was closed with it. The samples were assessed for mortality and growth inhibition in comparison to untreated samples 8 days after infestation.

[5] = test system: Myzus persicae (Green Peach Aphid); experiment: Myzus persicae (green peach aphid) feeding/contact activity, sunflower leaf discs; details: foliar, 144 h, application rate 200 ppm, sprayed sunflower leaf discs, aphid population of mixed ages, 6 days after infestation
Procedure: Example B4: Myzus persicae (Green Peach Aphid):Feeding/Contact Activity
as §1, with “Sunflower” for “Example B6: Myzus persicae (Green Peach Aphid) Feeding/Contact Activity Eggplant”

[6] = test system: Spodoptera littoralis (Egyptian Cotton Leaf Worm); experiment: Spodoptera littoralis (Egyptian cotton leaf worm) feeding/contact activity; details: foliar, 72 h, application rate 200 ppm, sprayed cotton leaf discs, L1 larvae, 3 days after infestation, read-out: control (mortality, anti-feeding effect, growth inhibition)
Procedure: Example B8: Spodoptera littoralis (Egyptian Cotton Leaf Worm) Feeding/Contact Activity
Cotton leaf discs were placed onto agar in 24-well microtiter plates and sprayed with aqueous test solutions prepared from 10,000 ppm DMSO stock solutions. After drying the leaf discs were infested with five L1 larvae. The samples were assessed for mortality, anti-feeding effect, and growth inhibition in comparison to untreated samples 3 days after infestation. Control of Spodoptera littoralis by a test sample is given when at least one of the categories mortality, anti-feedant effect, and growth inhibition is higher than the untreated sample.

[7] = test system: Frankliniella occidentalis (Western Flower Thrips); experiment: Frankliniella occidentalis (western flower thrips) feeding/contact activity; details: foliar, 168 h, application rate 200 ppm, sprayed sunflower leaf discs, population of mixed ages, 7 days after infestation
Procedure: Example B3: Frankliniella occidentalis (Western Flower Thrips): Feeding/Contact Activity
Sunflower leaf discs were placed on agar in 24-well microtiter plates and sprayed with aqueous test solutions prepared from 10,000 DMSO stock solutions. After drying the leaf discs were infested with a Frankliniella population of mixed ages. The samples were assessed for mortality 7 days after infestation.

[8] = test system: Diabrotica balteata (Corn Root Worm); experiment: Diabrotica balteata (corn root worm) feeding/contact activity; details: 96 h, application rate 200 ppm, sprayed maize sprouts, L2 larvae, 4 days after infestation, read-out: effect in at least one of the two categories (mortality or growth inhibition)
Procedure: Example B1: Diabrotica balteata (Corn Root Worm) Feeding/Contact Activity
Maize sprouts placed onto an agar layer in 24-well microtiter plates were treated with aqueous test solutions prepared from 10,000 ppm DMSO stock solutions by spraying. After drying, the plates were infested with L2 larvae (6 to 10 per well). The samples were assessed for mortality and growth inhibition in comparison to untreated samples 4 days after infestation.

[9] = test system: Tetranychus urticae (Two-Spotted Spider Mite); experiment: Tetranychus urticae (two-spotted spider mite) feeding/contact activity; details: foliar, 192 h, application rate 200 ppm, sprayed bean leaf discs, mite population of mixed ages (mobile stages), 8 days after infestation
Procedure: Example B9: Tetranychus urticae (Two-Spotted Spider Mite): Feeding/Contact Activity
Bean leaf discs on agar in 24-well microtiter plates were sprayed with aqueous test solutions prepared from 10,000 ppm DMSO stock solutions. After drying the leaf discs were infested with a mite population of mixed ages. The samples were assessed for mortality on mixed population (mobile stages) 8 days after infestation.

Structure (SMILES) | mortality at 12 ppm [3] [%] | percent effect (mortality or growth inhibition) at 200 ppm [4] [%] | mortality at 200 ppm [5] [%] | other results
C[C@@H](COc1cc2c(c(C(=O)NC3CC3)c1)CCC2)NS(=O)(=O)C(F)(F)F [P-33, N-cyclopropyl-6-[(2S)-2-(trifluoromethylsulfonylamino)propoxy]indane-4-carboxamide] | – | – | – | percent effect (mortality or growth inhibition) at 200 ppm [1]: ≥ 80%; inhibition at 200 ppm [2]: ≥ 80%
Cc1c(OC[C@H](C)NS(=O)(=O)C(F)(F)F)cc(C(=O)NC23CC(C2)C3)c2c1CCC2 [P-41, N-(1-bicyclo[1.1.1]pentanyl)-7-methyl-6-[(2S)-2-(trifluoromethylsulfonylamino)propoxy]indane-4-carboxamide] | ≥ 80 | ≥ 80 | – | –
C[C@@H](COc1cc2c(c(C(=O)NCC(F)(F)F)c1)CCCC2)NS(=O)(=O)C(F)(F)F [P-15, N-(2,2,2-trifluoroethyl)-7-[(2S)-2-(trifluoromethylsulfonylamino)propoxy]tetralin-5-carboxamide] | – | ≥ 80 | – | –
C[C@@H](COc1cc2c(c(C(=O)NC3CC3)c1)CCCC2)NS(=O)(=O)C(F)(F)F [P-9, N-cyclopropyl-7-[(2S)-2-(trifluoromethylsulfonylamino)propoxy]tetralin-5-carboxamide] | ≥ 80 | ≥ 80 | ≥ 80 | –
Cc1c(OC[C@H](C)NS(=O)(=O)C(F)(F)F)cc(C(=O)NC2CON(CC(F)(F)F)C2=O)c2c1CCC2 (stereo partly drawn) [P-40, 7-methyl-N-[3-oxo-2-(2,2,2-trifluoroethyl)isoxazolidin-4-yl]-6-[(2S)-2-(trifluoromethylsulfonylamino)propoxy]indane-4-carboxamide] | ≥ 80 | ≥ 80 | – | –
C[C@@H](COc1cc2c(c(C(N)=O)c1)CCCC2)NS(=O)(=O)C(F)(F)F [P-30, 7-[(2S)-2-(trifluoromethylsulfonylamino)propoxy]tetralin-5-carboxamide] | – | – | – | inhibition at 200 ppm [2]: ≥ 80%
C[C@@H](COc1cc2c(c(C(=O)Nc3ccc(F)cc3F)c1)CCCC2)NS(=O)(=O)C(F)(F)F [P-22, N-(2,4-difluorophenyl)-7-[(2S)-2-(trifluoromethylsulfonylamino)propoxy]tetralin-5-carboxamide] | – | – | – | mortality at 200 ppm [6]: ≥ 80%
Cc1c(OC[C@H](C)NS(=O)(=O)C(F)(F)F)cc(C(=O)NC2(C#N)CC2)c2c1CCC2 [P-7, N-(1-cyanocyclopropyl)-7-methyl-6-[(2S)-2-(trifluoromethylsulfonylamino)propoxy]indane-4-carboxamide] | ≥ 80 | – | ≥ 80 | mortality at 200 ppm [7]: ≥ 80%
Cc1c(OC[C@H](C)NS(=O)(=O)C(F)(F)F)cc(C(N)=O)c2c1CCC2 [P-1, 7-methyl-6-[(2S)-2-(trifluoromethylsulfonylamino)propoxy]indane-4-carboxamide] | – | – | ≥ 80 | –
C[C@@H](COc1cc2c(c(C(=O)NCc3ncccn3)c1)CCCC2)NS(=O)(=O)C(F)(F)F [P-23, N-(pyrimidin-2-ylmethyl)-7-[(2S)-2-(trifluoromethylsulfonylamino)propoxy]tetralin-5-carboxamide] | – | – | – | mortality at 200 ppm [7]: ≥ 80%
COC(=O)C1(NC(=O)c2cc(OC[C@H](C)NS(=O)(=O)C(F)(F)F)c(C)c3c2CCC3)CC1 [P-4, methyl 1-[7-methyl-6-[(2S)-2-(trifluoromethylsulfonylamino)propoxy]indane-4-carbonyl]amino] cyclopropanecarboxylate] | – | ≥ 80 | ≥ 80 | –
Cc1c(OC[C@H](C)NS(=O)(=O)C(F)(F)F)cc(C(=O)NC2CC2)c2c1CCC2 [P-3] | ≥ 80 | ≥ 80 | ≥ 80 | percent effect (mortality or growth inhibition) at 200 ppm [1]: ≥ 80%; mortality at 200 ppm [7]: ≥ 80%; percent effect (mortality or growth inhibition) at 200 ppm [8]: ≥ 80%
CCN1OC[C@@H](NC(=O)c2cc(OC[C@H](C)NS(=O)(=O)C(F)(F)F)c(C)c3c2CCC3)C1=O [P-2, N-[(4R)-2-ethyl-3-oxo-isoxazolidin-4-yl]-7-methyl-6-[(2S)-2-(trifluoromethylsulfonylamino)propoxy]indane-4-carboxamide] | – | – | ≥ 80 | –
C[C@@H](COc1cc2c(c(C(=O)NC3(C#N)CCC3)c1)CCCC2)NS(=O)(=O)C(F)(F)F [P-11, N-(1-cyanocyclobutyl)-7-[(2S)-2-(trifluoromethylsulfonylamino)propoxy]tetralin-5-carboxamide] | ≥ 80 | – | – | –
C[C@@H](COc1cc2c(c(C(=O)NC34CC(C3)C4)c1)CCCC2)NS(=O)(=O)C(F)(F)F [P-32, N-(1-bicyclo[1.1.1]pentanyl)-7-[(2S)-2-(trifluoromethylsulfonylamino)propoxy]tetralin-5-carboxamide] | ≥ 80 | ≥ 80 | – | –
CO/N=C/NC(=O)c1cc(OC[C@H](C)NS(=O)(=O)C(F)(F)F)c(C)c2c1CCC2 [P-6, N-[(E)-methoxyiminomethyl]-7-methyl-6-[(2S)-2-(trifluoromethylsulfonylamino)propoxy]indane-4-carboxamide] | – | – | ≥ 80 | –
Cc1c(OC[C@H](C)NS(=O)(=O)C(F)(F)F)cc(C(=O)NC2(C(=O)O)CC2)c2c1CCC2 [P-5] | – | – | ≥ 80 | –
C[C@@H](COc1cc2c(c(C(=O)NC3(C#N)CC3)c1)CCCC2)NS(=O)(=O)C(F)(F)F [P-8, N-(1-cyanocyclopropyl)-7-[(2S)-2-(trifluoromethylsulfonylamino)propoxy]tetralin-5-carboxamide] | ≥ 80 | ≥ 80 | ≥ 80 | –
Cc1cc(F)ccc1NC(=O)c1cc(OC[C@H](C)NS(=O)(=O)C(F)(F)F)cc2c1CCCC2 [P-28, N-(4-fluoro-2-methyl-phenyl)-7-[(2S)-2-(trifluoromethylsulfonylamino)propoxy]tetralin-5-carboxamide] | – | ≥ 80 | – | –
Cc1c(OC[C@H](C)NS(=O)(=O)C(F)(F)F)cc(C(=O)NCC(F)(F)F)c2c1CCC2 [P-39, 7-methyl-N-(2,2,2-trifluoroethyl)-6-[(2S)-2-(trifluoromethylsulfonylamino)propoxy]indane-4-carboxamide] | – | ≥ 80 | – | –
Cc1cc(F)ccc1NC(=O)c1cc(OC[C@H](C)NS(=O)(=O)C(F)(F)F)c(C)c2c1CCC2 [P-42, N-(4-fluoro-2-methyl-phenyl)-7-methyl-6-[(2S)-2-(trifluoromethylsulfonylamino)propoxy]indane-4-carboxamide] | ≥ 80 | – | – | –
Cc1c(OC[C@H](C)NS(=O)(=O)C(Cl)Cl)cc(C(=O)NC2CC2)c2c1CCC2 [P-34, N-cyclopropyl-6-[(2S)-2-(dichloromethylsulfonylamino)propoxy]-7-methyl-indane-4-carboxamide] | – | – | – | mortality at 200 ppm [9]: ≥ 80%

Source: patent publication US20260206751A1, “NOVEL BICYCLIC-CARBOXAMIDE COMPOUNDS USEFUL AS PESTICIDES” (SYNGENTA CROP PROTECTION AG, priority 2022, published 2026)
